According to BigSolDB 2.1:

N[C@@H](Cc1c[nH]c2ccccc12)C(=O)O
solubility (mole fraction)
Conditions | in acetone | in acetonitrile | in ethanol | in ethyl acetate | in isopropanol | in methanol | in n-butanol | in water
278.15 K | 0.0001 | 1e-05 | 0.00012 | 4e-05 | 0.00011 | 0.00062 | 0.0001 | 0.00098
283.15 K | 0.00011 | 2e-05 | 0.00013 | 5e-05 | 0.00012 | 0.00066 | 0.00011 | 0.00105
288.15 K | 0.00013 | 2e-05 | 0.00014 | 7e-05 | 0.00014 | 0.00072 | 0.00012 | 0.00113
293.15 K | 0.00015 | 3e-05 | 0.00017 | 9e-05 | 0.00015 | 0.0008 | 0.00014 | 0.00124
298.15 K | 0.00018 | 4e-05 | 0.0002 | 0.00011 | 0.00018 | 0.0009 | 0.00017 | 0.00137
303.15 K | 0.00022 | 5e-05 | 0.00024 | 0.00014 | 0.00021 | 0.00102 | 0.0002 | 0.00154
308.15 K | 0.00026 | 7e-05 | 0.00028 | 0.00018 | 0.00024 | 0.00115 | 0.00024 | 0.00174
313.15 K | 0.00031 | 8e-05 | 0.00033 | 0.00023 | 0.00028 | 0.00131 | 0.00028 | 0.00199
318.15 K | 0.00037 | 0.0001 | 0.00038 | 0.00028 | 0.00033 | 0.00149 | 0.00034 | 0.00229
323.15 K | 0.00045 | 0.00012 | 0.00044 | 0.00034 | 0.00037 | 0.00166 | 0.0004 | 0.00261
328.15 K | 0.00056 | 0.00014 | 0.0005 | 0.00041 | 0.00043 | 0.00189 | 0.00049 | 0.00294
333.15 K | 0.00069 | 0.00017 | 0.00058 | 0.0005 | 0.0005 | 0.00217 | 0.00059 | 0.00328
